Several values for one entry are separate records, joined by “and”; a condition that tells them apart may be missing. Identical values can stand only once. Inconclusive results are not listed.

This assay concerns Lewis lung carcinoma i.m., BDF1 mice, T/C %. The assay can be described thus: NCI In Vivo Anticancer Drug Screen. Data for tumor model Lewis Lung Carcinoma (intramuscular) in B6D2F1 (BDF1) mice. Conditions: schedule: Q01DX011 (ip). Summed up:
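Transplantable tumour model; readout survival or tumour size; value = treated (T) / vehicle control (C).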

[1] abbreviates: endpoint: median survival time, dose: 12.5 mg/kg/injection, vehicle: saline, higher = longer survival.
Setting [2] is: endpoint: median survival time, dose: 25.0 mg/kg/injection, vehicle: saline, higher = longer survival.
The mark [3] stands for this setting: endpoint: median survival time, dose: 50.0 mg/kg/injection, vehicle: saline, higher = longer survival.
Setting [4] is: endpoint: median survival time, dose: 100.0 mg/kg/injection, vehicle: saline, higher = longer survival.
Where [5] appears, read: endpoint: mean tumor weight (est.), dose: 1.56 mg/kg/injection, vehicle: saline, higher = larger tumour.
Where [6] appears, read: endpoint: mean tumor weight (est.), dose: 6.25 mg/kg/injection, vehicle: saline, higher = larger tumour.
[7] abbreviates: endpoint: median survival time, dose: 1.56 mg/kg/injection, vehicle: saline, higher = longer survival.
Where [8] appears, read: endpoint: median survival time, dose: 6.25 mg/kg/injection, vehicle: saline, higher = longer survival.
Where [9] appears, read: endpoint: median survival time, dose: 3.12 mg/kg/injection, vehicle: saline, higher = longer survival.

Consider `COc1cc2c(c(OC)c1OC)-c1ccc(OC)c(=O)cc1[C@@H](NC=O)CC2`, for which the T/C is 90 % of control (endpoint: mean tumor weight (est.), dose: 0.25 mg/kg/injection, vehicle: saline, higher = larger tumour); 73 % of control (endpoint: mean tumor weight (est.), dose: 0.5 mg/kg/injection, vehicle: saline, higher = larger tumour); 49 % of control (endpoint: mean tumor weight (est.), dose: 1.0 mg/kg/injection, vehicle: saline, higher = larger tumour); 90 % of control (endpoint: median survival time, dose: 0.25 mg/kg/injection, vehicle: saline, higher = longer survival); 116 % of control (endpoint: median survival time, dose: 0.5 mg/kg/injection, vehicle: saline, higher = longer survival); 88 % of control (endpoint: median survival time, dose: 1.0 mg/kg/injection, vehicle: saline, higher = longer survival).

For the compound `COc1cccc2c1C(=O)c1c(O)c3c(c(O)c1C2=O)C[C@@](O)(C(=O)COC(=O)Cc1cccc2ccccc12)C[C@@H]3OC1CC(N)C(O)C(C)O1` (some centres undefined), the T/C (endpoint: median survival time, dose: 0.25 mg/kg/injection, vehicle: other, higher = longer survival) was 124 % of control; the T/C (endpoint: median survival time, dose: 0.5 mg/kg/injection, vehicle: other, higher = longer survival) was 108 % of control; the T/C (endpoint: median survival time, dose: 1.0 mg/kg/injection, vehicle: other, higher = longer survival) was 113 % of control.

On to `N#Cc1c(F)c(F)c(C#N)c(F)c1F`, for which the T/C was 100 % of control (endpoint: mean tumor weight (est.), dose: 1.25 mg/kg/injection, vehicle: saline with Tween-80, higher = larger tumour); 95 % of control (endpoint: mean tumor weight (est.), dose: 2.5 mg/kg/injection, vehicle: saline with Tween-80, higher = larger tumour); 101 % of control (endpoint: mean tumor weight (est.), dose: 5.0 mg/kg/injection, vehicle: saline with Tween-80, higher = larger tumour); 70 % of control (endpoint: mean tumor weight (est.), dose: 10.0 mg/kg/injection, vehicle: saline with Tween-80, higher = larger tumour); 87 % of control (endpoint: median survival time, dose: 1.25 mg/kg/injection, vehicle: saline with Tween-80, higher = longer survival); 89 % of control (endpoint: median survival time, dose: 10.0 mg/kg/injection, vehicle: saline with Tween-80, higher = longer survival).

Take `CC(C)S(=O)(=O)/C(Cl)=C(/Cl)C(Cl)=C(Cl)Cl`: the T/C is 111 % of control (endpoint: mean tumor weight, dose: 25.0 mg/kg/injection, vehicle: sodium bicarbonate, higher = larger tumour); 117 % of control (endpoint: mean tumor weight, dose: 50.0 mg/kg/injection, vehicle: sodium bicarbonate, higher = larger tumour); 100 % of control (endpoint: mean tumor weight, dose: 100.0 mg/kg/injection, vehicle: sodium bicarbonate, higher = larger tumour); 87 % of control (endpoint: median survival time, dose: 50.0 mg/kg/injection, vehicle: sodium bicarbonate, higher = longer survival).

On to `Cc1c(O)ccc(=O)n1O`, for which the T/C is 99 % of control (endpoint: mean tumor weight (est.), dose: 27.5 mg/kg/injection, vehicle: saline, higher = larger tumour); 121 % of control (endpoint: mean tumor weight (est.), dose: 55.0 mg/kg/injection, vehicle: saline, higher = larger tumour); 84 % of control (endpoint: mean tumor weight (est.), dose: 110.0 mg/kg/injection, vehicle: saline, higher = larger tumour); 79 % of control (endpoint: mean tumor weight (est.), dose: 220.0 mg/kg/injection, vehicle: saline, higher = larger tumour); 103 % of control (endpoint: median survival time, dose: 27.5 mg/kg/injection, vehicle: saline, higher = longer survival); 96 % of control (endpoint: median survival time, dose: 55.0 mg/kg/injection, vehicle: saline, higher = longer survival). For the same compound, the T/C (endpoint: median survival time, dose: 110.0 mg/kg/injection, vehicle: saline, higher = longer survival) is 98 % of control and the T/C (endpoint: median survival time, dose: 220.0 mg/kg/injection, vehicle: saline, higher = longer survival) was 121 % of control.

Regarding `CN(N=O)C(=O)N[C@@H](C=O)[C@@H](O)[C@H](O)[C@H](O)CO`, the T/C was 66 % of control (endpoint: mean tumor weight, dose: 12.5 mg/kg/injection, vehicle: saline, higher = larger tumour); 95 % of control (endpoint: mean tumor weight, dose: 25.0 mg/kg/injection, vehicle: saline, higher = larger tumour); 61 % of control (endpoint: mean tumor weight, dose: 100.0 mg/kg/injection, vehicle: saline, higher = larger tumour); 74 % of control (endpoint: mean tumor weight, dose: 200.0 mg/kg/injection, vehicle: saline, higher = larger tumour); 109 % of control under setting [1]; 95 % of control under setting [2]. Also, the T/C runs as follows: under setting [3], 90 % of control and 100 % of control; under setting [4], 92 % of control; (endpoint: median survival time, dose: 200.0 mg/kg/injection, vehicle: saline, higher = longer survival) 121 % of control.

For `Nc1nc(SCc2ccccc2)c2[nH]cnc2n1`, the T/C was 86 % of control (endpoint: mean tumor weight (est.), dose: 0.39 mg/kg/injection, vehicle: saline, higher = larger tumour); 91 % of control (endpoint: mean tumor weight (est.), dose: 0.78 mg/kg/injection, vehicle: saline, higher = larger tumour); 78 % of control under setting [5]; 70 % of control under setting [6]; 105 % of control (endpoint: mean tumor weight, dose: 0.78 mg/kg/injection, vehicle: Klucel (hydroxypropylcellulose) (HPC), higher = larger tumour); 92 % of control (endpoint: mean tumor weight, dose: 1.56 mg/kg/injection, vehicle: Klucel (hydroxypropylcellulose) (HPC), higher = larger tumour). The T/C by setting is: (endpoint: mean tumor weight, dose: 3.12 mg/kg/injection, vehicle: Klucel (hydroxypropylcellulose) (HPC), higher = larger tumour) 87 % of control; (endpoint: median survival time, dose: 0.39 mg/kg/injection, vehicle: saline, higher = longer survival) 103 % of control; (endpoint: median survival time, dose: 1.56 mg/kg/injection, vehicle: Klucel (hydroxypropylcellulose) (HPC), higher = longer survival) 102 % of control; under setting [7], 96 % of control; under setting [8], 111 % of control.

As for `CSc1ncnc2nc[nH]c12`, the T/C by setting is: under setting [5], 79 % of control; (endpoint: mean tumor weight (est.), dose: 3.12 mg/kg/injection, vehicle: saline, higher = larger tumour) 79 % of control; under setting [6], 85 % of control; (endpoint: mean tumor weight (est.), dose: 12.5 mg/kg/injection, vehicle: saline, higher = larger tumour) 78 % of control; (endpoint: mean tumor weight (est.), dose: 25.0 mg/kg/injection, vehicle: saline, higher = larger tumour) 80 % of control; (endpoint: mean tumor weight (est.), dose: 50.0 mg/kg/injection, vehicle: saline, higher = larger tumour) 89 % of control. Further, the T/C by setting is: (endpoint: mean tumor weight (est.), dose: 100.0 mg/kg/injection, vehicle: saline, higher = larger tumour) 62 % of control; (endpoint: mean tumor weight, dose: 3.12 mg/kg/injection, vehicle: other, higher = larger tumour) 96 % of control; (endpoint: mean tumor weight, dose: 6.25 mg/kg/injection, vehicle: other, higher = larger tumour) 79 % of control; (endpoint: mean tumor weight, dose: 12.5 mg/kg/injection, vehicle: other, higher = larger tumour) 73 % of control; (endpoint: median survival time, dose: 1.56 mg/kg/injection, vehicle: other, higher = longer survival) 104 % of control; under setting [7], 92 % of control. For the same compound, the T/C under setting [9] is 92 % of control; the T/C under setting [8] is 90 % of control; the T/C (endpoint: median survival time, dose: 12.5 mg/kg/injection, vehicle: other, higher = longer survival) is 93 % of control and 100 % of control; the T/C under setting [1] was 88 % of control; the T/C under setting [2] was 92 % of control; the T/C (endpoint: median survival time, dose: 50.0 mg/kg/injection, vehicle: other, higher = longer survival) was 109 % of control. Further, the T/C was 90 % of control under setting [3] and 105 % of control under setting [4].

As to `N#C[C@@H]1C2C=CC(CC2)[C@H]1C#N`, the T/C by setting is: (endpoint: mean tumor weight (est.), dose: 0.15 mg/kg/injection, vehicle: saline, higher = larger tumour) 56 % of control; (endpoint: mean tumor weight (est.), dose: 0.3 mg/kg/injection, vehicle: saline, higher = larger tumour) 83 % of control; (endpoint: mean tumor weight (est.), dose: 0.6 mg/kg/injection, vehicle: saline, higher = larger tumour) 98 % of control; (endpoint: mean tumor weight (est.), dose: 1.2 mg/kg/injection, vehicle: saline, higher = larger tumour) 95 % of control.

As for `NC(C(=O)O)C(F)C(=O)O` (centres undefined), the T/C is, setting by setting: under setting [9], 104 % of control; under setting [8], 98 % of control; under setting [1], 103 % of control.

These data come from PubChem BioAssay AID272 (DTP/NCI, 2004).
